In US20130143929A1, “FUNGICIDAL IMIDAZOLES” (EI DU PONT DE NEMOURS AND COMPANY, priority 2010, published 2013):
Marks after values point to notes of the source that are not given here.

Columns and labels:
Assay type in all cases: in vivo
[1] = tested on: Septoria tritici (the causal agent of wheat leaf blotch); test: Test B: wheat leaf blotch, preventive spray on wheat seedlings, visual disease rating; details: for Test B rating (100 = 100% disease control, 0 = no disease control relative to the controls): wheat leaf blotch, preventive spray on wheat seedlings; for Test B rating (% disease control, wheat leaf blotch): no asterisk: standard test suspension concentration, 100 = 100% disease control, 0 = no control relative to controls
In short: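 Preventive test: Septoria tritici spores applied one day after run-off spraying of seedlings (200 ppm equals 800 g/ha; some tests 40 ppm). After 48 h at 24 °C saturated atmosphere and 19 days at 20 °C, disease scored visually as % control relative to untreated plants.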

[2] = tested on: Blumeria graminis f. sp. tritici (also known as Erysiphe graminis f. sp. tritici, the causal agent of wheat powdery mildew); test: Test D: wheat powdery mildew, preventive spray on wheat seedlings, visual disease rating; details: for Test D rating (100 = 100% disease control, 0 = no disease control relative to the controls): wheat powdery mildew, preventive spray on wheat seedlings; for Test D rating (% disease control, wheat powdery mildew): no asterisk: standard test suspension concentration, 100 = 100% disease control, 0 = no control relative to controls
In short: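 Preventive test: seedlings sprayed to run-off and inoculated with powdery mildew spores one day later. Suspensions were made in 50/50 acetone/water with 250 ppm Trem 014 surfactant (200 ppm equals 800 g/ha). Visual ratings after 8 days at 20 °C give percent disease control versus controls.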

[3] = tested on: Puccinia recondite f. sp. tritici (the causal agent of wheat leaf rust); test: Test A: wheat leaf rust, preventive spray on wheat seedlings, visual disease rating; details: for Test A rating (100 = 100% disease control, 0 = no disease control relative to the controls): wheat leaf rust, preventive spray on wheat seedlings; for Test A rating (% disease control, wheat leaf rust): no asterisk: standard test suspension concentration, 100 = 100% disease control, 0 = no control relative to controls
In short: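 This was a preventive test: Puccinia recondite f. sp. tritici inoculum was applied one day after compound spray to run-off. Test suspensions were made in 50/50 acetone/water with 250 ppm surfactant, at 200 ppm (800 g/ha equivalent) or 40 ppm. Visual ratings of % disease control relative to controls were made after 24 h of saturated humidity and 7 growth-chamber days, all at 20° C.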

[4] = tested on: Botrytis cinerea (the causal agent of tomato Botrytis); test: Test C: tomato Botrytis, preventive spray on tomato seedlings, visual disease rating; details: for Test C rating (100 = 100% disease control, 0 = no disease control relative to the controls): tomato Botrytis, preventive spray on tomato seedlings; for Test C rating (% disease control, tomato Botrytis): no asterisk: standard test suspension concentration, 100 = 100% disease control, 0 = no control relative to controls
In short: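 Preventive test: B. cinerea spore inoculation one day after tomato seedlings were sprayed to run-off with compound suspended in 50/50 acetone–water plus 250 ppm surfactant. Plants held 48 h at 20° C in saturated air, then 3 days at 24° C; visual ratings scored 100 (full control) to 0 versus controls; some entries used 40 ppm.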

[5] = no asterisk (standard test suspension concentration, not 40 ppm)
[6] = asterisk: 40 ppm test suspension

Compound | Test B rating (100 = 100% disease control, 0 = no disease control relative to the controls) [1, 6] | Test D rating (100 = 100% disease control, 0 = no disease control relative to the controls) [2, 6] | Test A rating (100 = 100% disease control, 0 = no disease control relative to the controls) [3, 6] | Test C rating (100 = 100% disease control, 0 = no disease control relative to the controls) [4, 6] | other results
Cc1cc(F)ccc1C(O)c1cnc(C)n1-c1c(F)cc(F)cc1Cl (stereo not drawn) [compound 368] |  |  |  |  | Test B rating (100 = 100% disease control, 0 = no disease control relative to the controls) [1, 5]: 100%; Test D rating (100 = 100% disease control, 0 = no disease control relative to the controls) [2, 5]: 0%; Test A rating (100 = 100% disease control, 0 = no disease control relative to the controls) [3, 5]: 100%; Test C rating (100 = 100% disease control, 0 = no disease control relative to the controls) [4, 5]: 99%
OC(c1ccc(F)cc1F)c1c(Cl)nc(Cl)n1-c1c(F)cc(F)cc1Cl (racemic) [compound 40] |  |  |  |  | Test B rating (100 = 100% disease control, 0 = no disease control relative to the controls) [1, 5]: 100%; Test D rating (100 = 100% disease control, 0 = no disease control relative to the controls) [2, 5]: 100%; Test A rating (100 = 100% disease control, 0 = no disease control relative to the controls) [3, 5]: 100%; Test C rating (100 = 100% disease control, 0 = no disease control relative to the controls) [4, 5]: 100%
COc1ccc(C(O)c2c(Br)nc(C)n2-c2ccc(F)cc2Cl)c(Cl)c1 (racemic) [compound 254] |  |  |  |  | Test B rating (100 = 100% disease control, 0 = no disease control relative to the controls) [1, 5]: 100%; Test D rating (100 = 100% disease control, 0 = no disease control relative to the controls) [2, 5]: 83%; Test A rating (100 = 100% disease control, 0 = no disease control relative to the controls) [3, 5]: 100%; Test C rating (100 = 100% disease control, 0 = no disease control relative to the controls) [4, 5]: 100%
COc1ccc(C(O)c2c(Cl)nc(C)n2-c2ccc(F)cc2Br)c(F)c1 (stereo not drawn) [compound 314] | 100* % | 47* % | 100* % | 99* % | 
Cc1nc(Br)c(C(O)c2ccc(F)cc2Cl)n1-c1ccc(F)cc1Cl (stereo not drawn) [compound 142] |  |  |  |  | Test B rating (100 = 100% disease control, 0 = no disease control relative to the controls) [1, 5]: 100%; Test D rating (100 = 100% disease control, 0 = no disease control relative to the controls) [2, 5]: 71%; Test A rating (100 = 100% disease control, 0 = no disease control relative to the controls) [3, 5]: 100%; Test C rating (100 = 100% disease control, 0 = no disease control relative to the controls) [4, 5]: 99%
Cc1cc(F)ccc1C(O)c1cnc(C)n1-c1c(F)cccc1F (stereo not drawn) [compound 80] |  |  |  |  | Test B rating (100 = 100% disease control, 0 = no disease control relative to the controls) [1, 5]: 100%; Test D rating (100 = 100% disease control, 0 = no disease control relative to the controls) [2, 5]: 0%; Test A rating (100 = 100% disease control, 0 = no disease control relative to the controls) [3, 5]: 99%; Test C rating (100 = 100% disease control, 0 = no disease control relative to the controls) [4, 5]: 0%
Cc1nc(Br)c(C(O)c2ccc(Cl)cc2)n1-c1ccc(F)cc1F (stereo not drawn) [compound 380] |  |  |  |  | Test B rating (% disease control, wheat leaf blotch) [1]: 100%; Test D rating (% disease control, wheat powdery mildew) [2]: 0%; Test A rating (% disease control, wheat leaf rust) [3]: 98%; Test C rating (% disease control, tomato Botrytis) [4]: 100%
Cc1cc(C#N)ccc1C(O)c1c(Cl)nc(C)n1-c1c(F)cccc1F (stereo not drawn) [compound 164] | 100* % | 0* % | 93* % | 0* % | 
COc1ccc(C(O)c2c(Cl)nc(C)n2-c2ccc(F)cc2F)c(F)c1 (stereo not drawn) [compound 306] | 100* % | 0* % | 100* % | 97* % | 
COc1ccc(C(O)c2c(Br)nc(C)n2-c2c(F)cc(F)cc2Cl)c(Cl)c1 (stereo not drawn) [compound 349] | 100* % | 90* % | 100* % | 98* % | 
OC(c1ccc(F)cc1F)c1c(Cl)nc(Br)n1-c1c(F)cc(F)cc1Cl (stereo not drawn) [compound 121] | 100* % | 98* % | 100* % | 100* % | 
COc1ccc(C(O)c2c(C)nc(Cl)n2-c2c(F)cccc2Br)c(C)c1 (stereo not drawn) [compound 213] | 100* % | 91* % | 100* % | 100* % | 
Cc1ncn(-c2ccc(F)cc2Cl)c1C(O)c1ccc(Cl)cc1Cl (racemic) [compound 33] |  | 0* % |  |  | Test B rating (100 = 100% disease control, 0 = no disease control relative to the controls) [1, 5]: 100%; Test A rating (100 = 100% disease control, 0 = no disease control relative to the controls) [3, 5]: 100%; Test C rating (100 = 100% disease control, 0 = no disease control relative to the controls) [4, 5]: 100%
Cc1ncc(C(O)c2ccc(F)cc2F)n1-c1ccc(F)cc1Cl (stereo not drawn) [compound 396] |  |  |  |  | Test B rating (% disease control, wheat leaf blotch) [1]: 100%; Test D rating (% disease control, wheat powdery mildew) [2]: 0%; Test A rating (% disease control, wheat leaf rust) [3]: 100%; Test C rating (% disease control, tomato Botrytis) [4]: 87%
OC(c1ccc(F)cc1F)c1c(Br)ncn1-c1c(F)cccc1F (stereo not drawn) [compound 96] | 100* % | 0* % | 68* % | 40* % | 
Cc1nc(Cl)c(C(O)c2ccc(F)cc2Cl)n1-c1c(F)cccc1Cl (stereo not drawn) [compound 200] | 100* % | 98* % | 100* % | 99* % | 
Cc1nc(Br)c(C(O)c2c(F)cc(Cl)cc2F)n1-c1ccc(F)cc1Br (stereo not drawn) [compound 308] | 100* % | 93* % | 100* % | 100* % | 
Cc1nc(Br)c(C(O)c2c(F)cccc2F)n1-c1c(F)cccc1F (stereo not drawn) [compound 106] | 100* % | 43* % | 99* % | 91* % | 
COc1ccc(C(O)c2cnc(C)n2-c2ccc(F)cc2Br)c(F)c1 (stereo not drawn) [compound 303] | 43* % | 0* % | 74* % | 8* % | 
Cc1nc(Br)c(C(O)c2ccc(F)cc2F)n1-c1c(F)cccc1F (stereo not drawn) [compound 178] | 100* % | 64* % | 100* % | 96* % | 
COc1ccc(-n2c(Cl)nc(Cl)c2C(O)c2c(F)cc(F)cc2F)c(F)c1 (stereo not drawn) [compound 327] | 100* % | 29* % | 100* % | 100* % | 
